Structures can show the parent of a compound that is named as a salt.
Key:
PC-3 (prostate) = assay: Cancer cell survival assay, PC-3; type: cell-based, human; settings: PC-3, seven days, alone
Description: Cell survival was assayed in cultured tumor cells. From 500-1000 cells per well were plated in 24-welled culture dishes and exposed to drug for seven days. After drug exposure, a computerized cell imaging technique was utilized to ascertain the number of viable cells remaining in each culture. From the data, survival curves were plotted and a ED50 (drug concentration that permits 50% cell survival) were calculated.
The cancer cell survival assay is an important additional in vitro assay to assess the anti-neoplastic activity of compounds as the cells are given a prolonged exposure (seven days) to the drug. FIGS. 9-16 show the effect of increasing the dose of NCO-700 on the survival of a number of cancer cell lines. […] In the figures, the vertical axis is the object area, which is the number of surviving cancer cells calculated by a computer.

[1] = test system: PC-3 (prostate tumor cell line); assay: Apoptosis induced DNA fragmentation (agarose gel); type: cell-based, human; settings: PC-3, 50 μM, 48 hours
Description: PC-3, a prostate tumor cell line, was treated with 25 μM TOP-008, 50 μM NCO-700, or water for 48 hours. The DNA from each sample was purified by phenol extraction, and the fragmentation was resolved on an agarose gel.

human colon cancer cells = assay: Subrenal capsule (SRC) tumor implant assay, colon cancer; type: in vivo, human tumor in BDF/1 mice
Description: FIG. 19 is a graph showing the relationship between the change in size of tumor and the dosage of NCO-700 in a sub-renal capsule assay of human colon cancer in BDF/1 mice.
(§1) A tumor implant model, where human tumors were implanted into the renal capsule of mice was performed. The tumors successfully escaped the immune system of the mouse and grew over a six-day period. The advantage of this assay is that the effect of chemotherapeutic agents can be tested in vivo. This model was developed at the University of California, Irvine by Stratton et al. (Gynecologic Oncology 17:185-188, 1984). Human tumors were implanted on day one and were exposed to drug on days two-six. The size of the implant was determined at time zero and at the end of five days of drug treatment, and the difference in size of the implanted tumor at day six, when compared to control animals not exposed to drug, is referred to herein as the delta mean.
The effect of NCO-700 on a colon cancer line was tested in the SRC assay. Three groups of animals (n=18 total) were tested with two concentrations of NCO-700 including. 50 mg/kg and 100 mg/kg. […] These studies confirm the high potential of NCO-700 and related compounds as new anti-neoplastic agents.

[2] = test system: human prostate cancer cells; assay: Subrenal capsule (SRC) tumor implant assay, prostate cancer; type: in vivo, human tumor in BDF/1 mice
Description: FIG. 17 is a graph showing the relationship between the mean change in size of tumor (delta mean) and the dosage of NCO-700 in a sub-renal capsule assay of human prostate cancer in BDF/1 mice.
3. In Vivo Model/Subrenal Capsule (SRC) Tumor Implant Assay
as §1
Human cancer cells can be grown in the sub-renal capsule of mice, where for a limited period of time they escaped the detection of the mouse's immune system. This assay provides a convenient system to study the effect of drugs on the growth of tumor cells in vivo. As this is a much more time-consuming assay, and requires more drug than the in vitro assays, the effect of NCO-700 was tested on a single prostate cancer cell line. Three groups of animals (n=23 total) were tested with three concentrations of NCO-700 including, 10 mg/kg, 20 mg/kg and 40 mg/kg.

CCOC(=O)[C@@H]1O[C@H]1C(=O)N[C@@H](CC(C)C)C(=O)N1CCN(Cc2ccc(OC)c(OC)c2OC)CC1 [NCO-700, Bis[ethyl (2R,3R)-3-[(S)-3-methyl-1-[4-(2,3,4-trimethoxyphenylmethyl)piperazin-1-ylcarbonyl]butylcarbamoyl]oxirane-2-carboxylate] Sulfate]
anti-neoplastic activity (cell survival) (PC-3 (prostate)): significant anti-neoplastic activity
DNA fragmentation [1]: significant DNA fragmentation
effect on tumor size (human colon cancer cells; 50 mg/kg): slight effect
effect on tumor size (human colon cancer cells; 100 mg/kg): significant anti-neoplastic effect
effect on tumor size ([2]; 10 mg/kg): no effect
effect on tumor size ([2]; 20 mg/kg): significant anti-neoplastic effect
effect on tumor size ([2]; 40 mg/kg): highly significant
